Source: the supplement of paper PMC10307832

What was measured:
Assay in all cases: relative viability (nuclei count vs DMSO), 5 days (fraction); higher = more cells survive
Ruboxistaurin = compound: CN(C)C[C@@H]1CCn2cc(c3ccccc32)C2=C(C(=O)NC2=O)c2cn(c3ccccc23)CCO1 [Ruboxistaurin]
Method in brief: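 In 1536-well plates, lung cancer cell lines rested overnight at 37 °C before five library-drug doses (not always all listed), √10 apart, were pinned onto vehicle-anchored plates. Nuclei were counted with MetaXpress from 4× Hoechst images taken after 5 days without medium change. Viability compares treated-well with vehicle-well nuclei as a median over plates, and plates needed control CV below 25% plus at least one doubling to pass.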

[1] = compound: CN(C)C[C@@H]1CCn2cc(c3ccccc32)C2=C(C(=O)NC2=O)c2cn(c3ccccc23)CCO1 [Ruboxistaurin] + CC(C)C[C@H](NC(=O)[C@H](Cc1ccccc1)NC(=O)c1cnccn1)B(O)O [Bortezomib] (partner 0.002 µM)
Method in brief: (§1)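 A single step with final 0.05% Triton X-100, 1% formaldehyde and 1 ug/ml Hoechst fixed the cells and stained nuclei 5 days after treatment. Lung cancer cell lines in 1536-well plates had been treated by pin tool the day after seeding with one drug alone or a fixed anchor-drug dose plus five library-drug doses (not always all listed) in √10 steps, and nuclei were counted on 4× images. Relative viability is the ratio of nuclei in treated wells to nuclei in vehicle wells, taken as the median of duplicate plates.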

[2] = compound: CN(C)C[C@@H]1CCn2cc(c3ccccc32)C2=C(C(=O)NC2=O)c2cn(c3ccccc23)CCO1 [Ruboxistaurin] + CC1(C)CCC(c2ccc(Cl)cc2)=C(CN2CCN(c3ccc(C(=O)NS(=O)(=O)c4ccc(N[C@H](CCN5CCOCC5)CSc5ccccc5)c(S(=O)(=O)C(F)(F)F)c4)cc3)CC2)C1 [Navitoclax] (partner 0.5 µM)
Method in brief: as §1

[3] = compound: CN(C)C[C@@H]1CCn2cc(c3ccccc32)C2=C(C(=O)NC2=O)c2cn(c3ccccc23)CCO1 [Ruboxistaurin] + COc1cc2c(Oc3ccc(NC(=O)C4(C(=O)Nc5ccc(F)cc5)CC4)cc3F)ccnc2cc1OCCCN1CCOCC1 [Foretinib] (partner 0.25 µM)
Method in brief: as §1

[4] = compound: CN(C)C[C@@H]1CCn2cc(c3ccccc32)C2=C(C(=O)NC2=O)c2cn(c3ccccc23)CCO1 [Ruboxistaurin] + CS(=O)(=O)CCNCc1ccc(-c2ccc3ncnc(Nc4ccc(OCc5cccc(F)c5)c(Cl)c4)c3c2)o1 [Lapatinib] (partner 2 µM)
Method in brief: as §1

[5] = compound: CN(C)C[C@@H]1CCn2cc(c3ccccc32)C2=C(C(=O)NC2=O)c2cn(c3ccccc23)CCO1 [Ruboxistaurin] + CS(=O)(=O)N1CCN(Cc2cc3nc(-c4cccc5[nH]ncc45)nc(N4CCOCC4)c3s2)CC1 [Pictilisib] (partner 1 µM)
Method in brief: as §1

[6] = compound: CN(C)C[C@@H]1CCn2cc(c3ccccc32)C2=C(C(=O)NC2=O)c2cn(c3ccccc23)CCO1 [Ruboxistaurin] + C[C@@H](Oc1cc(-c2cnn(C3CCNCC3)c2)cnc1N)c1c(Cl)ccc(F)c1Cl [Crizotinib] (partner 1 µM)
Method in brief: as §1

[7] = compound: CN(C)C[C@@H]1CCn2cc(c3ccccc32)C2=C(C(=O)NC2=O)c2cn(c3ccccc23)CCO1 [Ruboxistaurin] + C[C@]1(O)C[C@@H](c2nc(-c3ccc4ccc(-c5ccccc5)nc4c3)c3c(N)nccn32)C1 [Linsitinib] (partner 1 µM)
Method in brief: as §1

[8] = compound: CN(C)C[C@@H]1CCn2cc(c3ccccc32)C2=C(C(=O)NC2=O)c2cn(c3ccccc23)CCO1 [Ruboxistaurin] + Cc1nc(NC(=O)N2CCC[C@H]2C(N)=O)sc1-c1ccnc(C(C)(C)C(F)(F)F)c1 [Alpelisib] (partner 2 µM)
Method in brief: as §1

Ruboxistaurin + Olaparib = compound: CN(C)C[C@@H]1CCn2cc(c3ccccc32)C2=C(C(=O)NC2=O)c2cn(c3ccccc23)CCO1 [Ruboxistaurin] + O=C(c1cc(Cc2n[nH]c(=O)c3ccccc23)ccc1F)N1CCN(C(=O)C2CC2)CC1 [Olaparib] (partner 8 µM)
Method in brief: as §1

[9] = compound: CN(C)C[C@@H]1CCn2cc(c3ccccc32)C2=C(C(=O)NC2=O)c2cn(c3ccccc23)CCO1 [Ruboxistaurin] + CCNC(=O)c1noc(-c2cc(C(C)C)c(O)cc2O)c1-c1ccc(CN2CCOCC2)cc1 [Luminespib] (partner 0.01 µM)
Method in brief: as §1

Ruboxistaurin + OSI-027 = compound: CN(C)C[C@@H]1CCn2cc(c3ccccc32)C2=C(C(=O)NC2=O)c2cn(c3ccccc23)CCO1 [Ruboxistaurin] + COc1cccc2cc(-c3nc([C@H]4CC[C@H](C(=O)O)CC4)n4ncnc(N)c34)[nH]c12 [OSI-027] (partner 0.5 µM)
Method in brief: as §1

[10] = compound: CN(C)C[C@@H]1CCn2cc(c3ccccc32)C2=C(C(=O)NC2=O)c2cn(c3ccccc23)CCO1 [Ruboxistaurin] + Cc1nc(Nc2ncc(C(=O)Nc3c(C)cccc3Cl)s2)cc(N2CCN(CCO)CC2)n1 [Dasatinib] (partner 0.075 µM)
Method in brief: as §1

[11] = compound: CN(C)C[C@@H]1CCn2cc(c3ccccc32)C2=C(C(=O)NC2=O)c2cn(c3ccccc23)CCO1 [Ruboxistaurin] + N=C(N)NC(=N)NCCc1ccccc1 [Phenformin] (partner 250 µM)
Method in brief: as §1

[12] = compound: CN(C)C[C@@H]1CCn2cc(c3ccccc32)C2=C(C(=O)NC2=O)c2cn(c3ccccc23)CCO1 [Ruboxistaurin] + Nc1nc2[nH]cc(CCc3ccc(C(=O)N[C@@H](CCC(=O)O)C(=O)O)cc3)c2c(=O)[nH]1 [Pemetrexed] (partner 0.2 µM)
Method in brief: as §1

NCI-H1299
relative viability (Ruboxistaurin; 0.08 µM): 1.06
relative viability (Ruboxistaurin; 0.8 µM): 1
relative viability (Ruboxistaurin; 2.53 µM): 1.01
relative viability (Ruboxistaurin; 8 µM): 1.09
relative viability ([1]; first compound 0.08 µM): 1.05
relative viability ([1]; first compound 0.8 µM): 1.02
relative viability ([1]; first compound 2.53 µM): 1.05
relative viability ([1]; first compound 8 µM): 1.08
relative viability ([2]; first compound 0.08 µM): 1.08
relative viability ([2]; first compound 0.8 µM): 1.01
relative viability ([2]; first compound 2.53 µM): 1.07
relative viability ([2]; first compound 8 µM): 1.06
relative viability ([3]; first compound 0.08 µM): 1.11
relative viability ([3]; first compound 0.8 µM): 1.11
relative viability ([3]; first compound 2.53 µM): 1.16
relative viability ([3]; first compound 8 µM): 1.21
relative viability ([4]; first compound 0.08 µM): 0.997
relative viability ([4]; first compound 0.8 µM): 0.931
relative viability ([4]; first compound 2.53 µM): 0.993
relative viability ([4]; first compound 8 µM): 0.962
relative viability ([5]; first compound 0.08 µM): 0.841
relative viability ([5]; first compound 0.8 µM): 0.51
relative viability ([5]; first compound 2.53 µM): 0.731
relative viability ([5]; first compound 8 µM): 0.45
relative viability ([6]; first compound 0.08 µM): 0.921
relative viability ([6]; first compound 0.8 µM): 0.978
relative viability ([6]; first compound 2.53 µM): 0.99
relative viability ([6]; first compound 8 µM): 1.02
relative viability ([7]; first compound 0.08 µM): 1.03
relative viability ([7]; first compound 0.8 µM): 0.921
relative viability ([7]; first compound 2.53 µM): 0.951
relative viability ([7]; first compound 8 µM): 1.15
relative viability ([8]; first compound 0.08 µM): 1.08
relative viability ([8]; first compound 0.8 µM): 1.07
relative viability ([8]; first compound 2.53 µM): 1.07
relative viability ([8]; first compound 8 µM): 1.16
relative viability (Ruboxistaurin + Olaparib; first compound 0.08 µM): 0.95
relative viability (Ruboxistaurin + Olaparib; first compound 0.8 µM): 1.02
relative viability (Ruboxistaurin + Olaparib; first compound 2.53 µM): 0.976
relative viability (Ruboxistaurin + Olaparib; first compound 8 µM): 1.08

NCI-H1563
relative viability (Ruboxistaurin; 0.08 µM): 1
relative viability (Ruboxistaurin; 0.8 µM): 0.947
relative viability (Ruboxistaurin; 2.53 µM): 1.07
relative viability (Ruboxistaurin; 8 µM): 0.886
relative viability ([1]; first compound 0.08 µM): 0.871
relative viability ([1]; first compound 0.8 µM): 0.763
relative viability ([1]; first compound 2.53 µM): 0.933
relative viability ([1]; first compound 8 µM): 0.775
relative viability ([9]; first compound 0.08 µM): 0.507
relative viability ([9]; first compound 0.8 µM): 0.544
relative viability ([9]; first compound 2.53 µM): 0.483
relative viability ([9]; first compound 8 µM): 0.52
relative viability ([3]; first compound 0.08 µM): 1.03
relative viability ([3]; first compound 0.8 µM): 0.892
relative viability ([3]; first compound 2.53 µM): 0.946
relative viability ([3]; first compound 8 µM): 0.856
relative viability (Ruboxistaurin + OSI-027; first compound 0.08 µM): 0.796
relative viability (Ruboxistaurin + OSI-027; first compound 0.8 µM): 0.748
relative viability (Ruboxistaurin + OSI-027; first compound 2.53 µM): 0.694
relative viability (Ruboxistaurin + OSI-027; first compound 8 µM): 0.66
relative viability ([4]; first compound 0.08 µM): 1.06
relative viability ([4]; first compound 0.8 µM): 0.945
relative viability ([4]; first compound 2.53 µM): 1.04
relative viability ([4]; first compound 8 µM): 0.952
relative viability ([5]; first compound 0.08 µM): 0.626
relative viability ([5]; first compound 0.8 µM): 0.662
relative viability ([5]; first compound 2.53 µM): 0.601
relative viability ([5]; first compound 8 µM): 0.618
relative viability ([6]; first compound 0.08 µM): 0.947
relative viability ([6]; first compound 0.8 µM): 0.873
relative viability ([6]; first compound 2.53 µM): 0.938
relative viability ([6]; first compound 8 µM): 0.741
relative viability ([7]; first compound 0.08 µM): 1.34
relative viability ([7]; first compound 0.8 µM): 1.14
relative viability ([7]; first compound 2.53 µM): 1.37
relative viability ([7]; first compound 8 µM): 1.16
relative viability ([8]; first compound 0.08 µM): 0.972
relative viability ([8]; first compound 0.8 µM): 0.867
relative viability ([8]; first compound 2.53 µM): 1.05
relative viability ([8]; first compound 8 µM): 0.849
relative viability ([10]; first compound 0.08 µM): 0.499
relative viability ([10]; first compound 0.8 µM): 0.502
relative viability ([10]; first compound 2.53 µM): 0.465
relative viability ([10]; first compound 8 µM): 0.404
relative viability ([11]; first compound 0.08 µM): 0.67
relative viability ([11]; first compound 0.8 µM): 0.654
relative viability ([11]; first compound 2.53 µM): 0.702
relative viability ([11]; first compound 8 µM): 0.693
relative viability ([12]; first compound 0.08 µM): 0.831
relative viability ([12]; first compound 0.8 µM): 0.724
relative viability ([12]; first compound 2.53 µM): 0.987
relative viability ([12]; first compound 8 µM): 0.656
